According to the supplement of paper PMC8671470:

system: HL-60; assay: cell viability (% survival relative to DMSO control, bortezomib = 0%); higher = less cytotoxic; conditions: 100 nM; 72 h
In short: (§1)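 In 384-well plates pre-printed with compounds at 1, 10, 100, 1000 or 10000 nM, duplicate wells received cells from 10 AML and 5 CML lines at densities within the linear growth range. The plates stayed at 37 °C with 5% CO2 for 72 h before CellTiter-Glo luminescence was recorded. Each entry is averaged percent survival. Scaling placed vehicle at 100% and a 10 µM positive control at 0%.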

First: C=C(C)[C@H]1Cc2c(ccc3c2O[C@@H]2COc4cc(OC)c(OC)cc4[C@@H]2C3=O)O1 [Rotenone]
Second: O=C(O)c1cc(N=Nc2ccc(S(=O)(=O)Nc3ccccn3)cc2)ccc1O [Sulfasalazine]
The cell viability of the first is lower: 82.1% for the first, 135% for the second.

`Oc1ccc(Nc2nc(-c3ccc(Cl)cc3)cs2)cc1` [SKI II] gave a cell viability of 97.7%.

same assay, conditions: 1000 nM; 72 h

First: CCCCN1C[C@H](O)[C@@H](O)[C@H](O)[C@H]1CO [Miglustat]
Second: CCCCCCCCCCC[C@@H](C[C@@H]1OC(=O)[C@H]1CCCCCC)OC(=O)[C@H](CC(C)C)NC=O [Orlistat]
The cell viability of the first is lower: 101% for the first, 106% for the second.

First: C=C(C=NNC(=N)N)NNC(=N)N [Mitoguazone]
Second: O=C(NNc1ccccc1)c1ccncc1 [PluriSln 1]
The cell viability of the first is lower: 97.7% for the first, 109% for the second.

Compared with `CCCCC/C=C\C/C=C\C/C=C\C/C=C\CCCCN1C(=O)C=CC1=O` [N-Arachidonylmaleimide], `COc1cc(/C=C/C(=O)N2CCC=CC2=O)cc(OC)c1OC` [Piperlongumine] is lower in cell viability: 125% for the first, 85.7% for the second.

First: COc1ccc(C(=O)Nc2c(Cl)cncc2Cl)cc1OC1CCCC1 [Piclamilast]
Second: C=C(C)[C@H]1Cc2c(ccc3c2O[C@@H]2COc4cc(OC)c(OC)cc4[C@@H]2C3=O)O1 [Rotenone]
The cell viability of the first is higher: 87.5% for the first, 0.525% for the second.

First: CC(C)c1nc(CN(C)C(=O)N[C@H](C(=O)N[C@@H](Cc2ccccc2)C[C@H](O)[C@H](Cc2ccccc2)NC(=O)OCc2cncs2)C(C)C)cs1 [Ritonavir]
Second: O=C(O)c1cc(N=Nc2ccc(S(=O)(=O)Nc3ccccn3)cc2)ccc1O [Sulfasalazine]
The cell viability of the first is lower: 103% for the first, 106% for the second.

Molecule `Oc1ccc(Nc2nc(-c3ccc(Cl)cc3)cs2)cc1` [SKI II] has a cell viability of 77.7%.

same assay, conditions: 10000 nM; 72 h

First: CCCCN1C[C@H](O)[C@@H](O)[C@H](O)[C@H]1CO [Miglustat]
Second: CCCCCCCCCCC[C@@H](C[C@@H]1OC(=O)[C@H]1CCCCCC)OC(=O)[C@H](CC(C)C)NC=O [Orlistat]
The cell viability of the first is lower: 91.8% for the first, 98.7% for the second.

Compared with `C=C(C=NNC(=N)N)NNC(=N)N` [Mitoguazone], `O=C(NNc1ccccc1)c1ccncc1` [PluriSln 1] is lower in cell viability: 32.9% for the first, 20.7% for the second.

First: CCCCC/C=C\C/C=C\C/C=C\C/C=C\CCCCN1C(=O)C=CC1=O [N-Arachidonylmaleimide]
Second: COc1cc(/C=C/C(=O)N2CCC=CC2=O)cc(OC)c1OC [Piperlongumine]
The cell viability of the first is higher: 88.1% for the first, 0.441% for the second.

First: COc1ccc(C(=O)Nc2c(Cl)cncc2Cl)cc1OC1CCCC1 [Piclamilast]
Second: C=C(C)[C@H]1Cc2c(ccc3c2O[C@@H]2COc4cc(OC)c(OC)cc4[C@@H]2C3=O)O1 [Rotenone]
The cell viability of the first is higher: 115% for the first, 3.28% for the second.

Going from `CC(C)c1nc(CN(C)C(=O)N[C@H](C(=O)N[C@@H](Cc2ccccc2)C[C@H](O)[C@H](Cc2ccccc2)NC(=O)OCc2cncs2)C(C)C)cs1` [Ritonavir] to `O=C(O)c1cc(N=Nc2ccc(S(=O)(=O)Nc3ccccn3)cc2)ccc1O` [Sulfasalazine], the cell viability falls from 86.6% to 70.8%.

Molecule `Oc1ccc(Nc2nc(-c3ccc(Cl)cc3)cs2)cc1` [SKI II] has a cell viability of 11.2%.

system: K-562; assay: as above; conditions: 1 nM; 72 h
In short: as §1

Going from `CCCCN1C[C@H](O)[C@@H](O)[C@H](O)[C@H]1CO` [Miglustat] to `CCCCCCCCCCC[C@@H](C[C@@H]1OC(=O)[C@H]1CCCCCC)OC(=O)[C@H](CC(C)C)NC=O` [Orlistat], the cell viability rises from 94.4% to 118%.

First: C=C(C=NNC(=N)N)NNC(=N)N [Mitoguazone]
Second: O=C(NNc1ccccc1)c1ccncc1 [PluriSln 1]
The cell viability of the first is higher: 96.1% for the first, 93.4% for the second.

First: CCCCC/C=C\C/C=C\C/C=C\C/C=C\CCCCN1C(=O)C=CC1=O [N-Arachidonylmaleimide]
Second: COc1cc(/C=C/C(=O)N2CCC=CC2=O)cc(OC)c1OC [Piperlongumine]
The cell viability of the first is higher: 103% for the first, 102% for the second.

Compared with `COc1ccc(C(=O)Nc2c(Cl)cncc2Cl)cc1OC1CCCC1` [Piclamilast], `C=C(C)[C@H]1Cc2c(ccc3c2O[C@@H]2COc4cc(OC)c(OC)cc4[C@@H]2C3=O)O1` [Rotenone] is lower in cell viability: 90.5% for the first, 88.9% for the second.

First: CC(C)c1nc(CN(C)C(=O)N[C@H](C(=O)N[C@@H](Cc2ccccc2)C[C@H](O)[C@H](Cc2ccccc2)NC(=O)OCc2cncs2)C(C)C)cs1 [Ritonavir]
Second: O=C(O)c1cc(N=Nc2ccc(S(=O)(=O)Nc3ccccn3)cc2)ccc1O [Sulfasalazine]
The cell viability of the first is higher: 112% for the first, 100% for the second.

Work on `Oc1ccc(Nc2nc(-c3ccc(Cl)cc3)cs2)cc1` [SKI II] yielded a cell viability of 99.5%.

same assay, conditions: 10 nM; 72 h

First: CCCCN1C[C@H](O)[C@@H](O)[C@H](O)[C@H]1CO [Miglustat]
Second: CCCCCCCCCCC[C@@H](C[C@@H]1OC(=O)[C@H]1CCCCCC)OC(=O)[C@H](CC(C)C)NC=O [Orlistat]
The cell viability of the first is higher: 95.8% for the first, 85.1% for the second.

Going from `C=C(C=NNC(=N)N)NNC(=N)N` [Mitoguazone] to `O=C(NNc1ccccc1)c1ccncc1` [PluriSln 1], the cell viability falls from 105% to 85.7%.

`CCCCC/C=C\C/C=C\C/C=C\C/C=C\CCCCN1C(=O)C=CC1=O` [N-Arachidonylmaleimide] and `COc1cc(/C=C/C(=O)N2CCC=CC2=O)cc(OC)c1OC` [Piperlongumine] are the same in cell viability: 91.5% for the first, 91.5% for the second.

Compared with `COc1ccc(C(=O)Nc2c(Cl)cncc2Cl)cc1OC1CCCC1` [Piclamilast], `C=C(C)[C@H]1Cc2c(ccc3c2O[C@@H]2COc4cc(OC)c(OC)cc4[C@@H]2C3=O)O1` [Rotenone] is lower in cell viability: 111% for the first, 66.4% for the second.

First: CC(C)c1nc(CN(C)C(=O)N[C@H](C(=O)N[C@@H](Cc2ccccc2)C[C@H](O)[C@H](Cc2ccccc2)NC(=O)OCc2cncs2)C(C)C)cs1 [Ritonavir]
Second: O=C(O)c1cc(N=Nc2ccc(S(=O)(=O)Nc3ccccn3)cc2)ccc1O [Sulfasalazine]
The cell viability of the first is higher: 112% for the first, 91.6% for the second.

`Oc1ccc(Nc2nc(-c3ccc(Cl)cc3)cs2)cc1` [SKI II] showed a cell viability of 107%.

same assay, conditions: 100 nM; 72 h

Compared with `CCCCN1C[C@H](O)[C@@H](O)[C@H](O)[C@H]1CO` [Miglustat], `CCCCCCCCCCC[C@@H](C[C@@H]1OC(=O)[C@H]1CCCCCC)OC(=O)[C@H](CC(C)C)NC=O` [Orlistat] is lower in cell viability: 94.4% for the first, 88.2% for the second.

First: C=C(C=NNC(=N)N)NNC(=N)N [Mitoguazone]
Second: O=C(NNc1ccccc1)c1ccncc1 [PluriSln 1]
The cell viability of the first is higher: 114% for the first, 90.4% for the second.

First: CCCCC/C=C\C/C=C\C/C=C\C/C=C\CCCCN1C(=O)C=CC1=O [N-Arachidonylmaleimide]
Second: COc1cc(/C=C/C(=O)N2CCC=CC2=O)cc(OC)c1OC [Piperlongumine]
The cell viability of the first is lower: 93.4% for the first, 106% for the second.

Going from `COc1ccc(C(=O)Nc2c(Cl)cncc2Cl)cc1OC1CCCC1` [Piclamilast] to `C=C(C)[C@H]1Cc2c(ccc3c2O[C@@H]2COc4cc(OC)c(OC)cc4[C@@H]2C3=O)O1` [Rotenone], the cell viability falls from 90.7% to 30.6%.

Going from `CC(C)c1nc(CN(C)C(=O)N[C@H](C(=O)N[C@@H](Cc2ccccc2)C[C@H](O)[C@H](Cc2ccccc2)NC(=O)OCc2cncs2)C(C)C)cs1` [Ritonavir] to `O=C(O)c1cc(N=Nc2ccc(S(=O)(=O)Nc3ccccn3)cc2)ccc1O` [Sulfasalazine], the cell viability rises from 89% to 120%.

Work on `Oc1ccc(Nc2nc(-c3ccc(Cl)cc3)cs2)cc1` [SKI II] yielded a cell viability of 107%.

same assay, conditions: 1000 nM; 72 h

First: CCCCN1C[C@H](O)[C@@H](O)[C@H](O)[C@H]1CO [Miglustat]
Second: CCCCC/C=C\C/C=C\C/C=C\C/C=C\CCCCN1C(=O)C=CC1=O [N-Arachidonylmaleimide]
The cell viability of the first is lower: 99.4% for the first, 110% for the second.

Work on `C=C(C=NNC(=N)N)NNC(=N)N` [Mitoguazone] yielded a cell viability of 67%.
